# Source: paper PMC9848300, “Discovery of novel enasidenib analogues targeting inhibition of mutant isocitrate dehydrogenase 2 as antileukaemic agents” (Journal of Enzyme Inhibition and Medicinal Chemistry, 2023)
# Columns and labels:
# CCRF-CEM = assay: NCI 60 antitumor screening (single dose / five doses); format: cell-based; details: Homo sapiens
# RPMI-8226 = assay: as above; format: cell-based; details: Homo sapiens
# SR = assay: as above; format: cell-based; details: Homo sapiens
# EKVX = assay: as above; format: cell-based; details: Homo sapiens
# HOP-92 = assay: as above; format: cell-based; details: Homo sapiens
# HCC-2998 = assay: NCI 60 antitumor screening (single dose); format: cell-based; details: Homo sapiens; HCC-2998 (colon cancer), single dose 10 μM; read-out: Growth inhibition percentage (GI %)
# Method in brief: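 Under the NCI Drug Evaluation Branch protocol, each compound is screened at one 10 μM concentration on the 60-line human tumour panel. Growth of treated cells is expressed as G%, and inhibition is reported as 100 − G%.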
# SNB-19 = assay: NCI 60 antitumor screening (single dose); format: cell-based; details: Homo sapiens; SNB-19 (CNS cancer), single dose 10 μM; read-out: Growth inhibition percentage (GI %)
# Method in brief: (§1)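 Values are GI% (100 − G%) from the NCI 60-line single-dose screen, compound at 10 μM.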
# TK-10 = assay: NCI 60 antitumor screening (single dose); format: cell-based; details: Homo sapiens; TK-10 (renal cancer), single dose 10 μM; read-out: Growth inhibition percentage (GI %)
# Method in brief: as §1
# COLO 205 = assay: NCI 60 antitumor screening (single dose / five doses); format: cell-based; details: Homo sapiens
# HCT-116 = assay: as above; format: cell-based; details: Homo sapiens
# HCT-15 = assay: as above; format: cell-based; details: Homo sapiens
# SW-620 = assay: as above; format: cell-based, human; details: Homo sapiens
# SF-295 = assay: as above; format: cell-based; details: Homo sapiens
# SF-539 = assay: as above; format: cell-based; details: Homo sapiens
# LOX IMVI = assay: as above; format: cell-based; details: Homo sapiens
# MDA-MB-435 = assay: as above; format: cell-based; details: Homo sapiens
# SK-MEL-2 = assay: as above; format: cell-based; details: Homo sapiens
# UACC-62 = assay: as above; format: cell-based; details: Homo sapiens
# IGROV1 = assay: as above; format: cell-based; details: Homo sapiens, IGROV-1
# NCI/ADR-RES = assay: as above; format: cell-based; details: Homo sapiens
# 786-0 = assay: as above; format: cell-based; details: Homo sapiens
# A498 = assay: as above; format: cell-based; details: Homo sapiens; A498, five doses (0.01–100 μM); read-out: GI50
# RXF 393 = assay: as above; format: cell-based; details: Homo sapiens
# UO-31 = assay: as above; format: cell-based; details: Homo sapiens
# MDA-MB-231/ATCC = assay: as above; format: cell-based; details: Homo sapiens
# BT-549 = assay: as above; format: cell-based; details: Homo sapiens
# MDA-MB-468 = assay: as above; format: cell-based; details: Homo sapiens
# [1] = tested on: 60 human subpanel cancer cell lines; assay: NCI 60 antitumor screening, mean over the panel (single dose); format: cell-based; details: mean over 60 cancer cell lines, single dose 10 μM
# Method: Initially, the anticancer effects of target compounds have been assessed at a single (10 μM) dose. The obtained data have been reported as mean-graph of the percent growth (G%) of the treated cancer cells. Percentage growth inhibition (GI%) is calculated (100 − G%) and pronounced in Table 1. […] Target compounds in series (III) with manipulated linkers disclosed lower potency. Superiorly, eight s-triazine derivatives from the three series (6a, 6c, 6d, 7a, 7g, 7i, 7l, and 8b) have shown potent broad-spectrum anticancer activity against most the examined cell lines, whereas most of the remaining triazine derivatives, 20 derivatives, have exerted selective anti-proliferative actions towards certain cancer cell lines (Supplementary).
# The antitumor screening was performed for 60 human cancer cell lines under the protocol of NCI (www.dtp.nci.nih.gov), the Drug Evaluation Branch, Bethesda, MD. All submitted compounds were nominated based on the degree of structural diversity and computer modelling techniques for evaluation of their anticancer activity. The screening process for antineoplastic activity passes through two successive levels, starting with the assessment of target compounds at a single dose of 10 μM against 60 cancer cell lines on nine types of human tumours. These experiments were done on a triplicate following. The output from the single‐dose screening was covered as a mean graph, and then, analysed by the COMPARE program. Finally, the compounds which disclosed subpanel cancer cell growth (G %) equal to or less than 10% in at least eight cancer cell lines get to pass the assessment against the 60 cell lines at five doses (0.01–100 μM). By using GraphPad Prism version 9.0 (Graphpad Software Inc., La Jolla, CA), GI50, TGI, as well as LC50 dose‐response parameters were computed and presented for each compound (Supplementary information)[55–57].
compound,measurement,setting,value
"Oc1ccccc1/C=N/Nc1nc(N/N=C/c2ccccc2O)nc(N2CCOCC2)n1 [compound 6a, 2-[(1e)-(2-{4-[(E)-2-[(2-Hydroxyphenyl)methylidene]hydrazin-1-yl]-6-(morpholin-4-yl)-1,3,5-triazin-2-yl}hydrazin-1-ylidene)methyl]phenol]",inhibition at 10 µM,"CCRF-CEM; CCRF-CEM (leukaemia), single dose 10 μM, read-out: Growth inhibition percentage (GI %)",57.6%
same,GI50,"CCRF-CEM; CCRF-CEM, five doses (0.01–100 μM), read-out: GI50",530 nM
same,inhibition at 10 µM,"RPMI-8226; RPMI-8226 (leukaemia), single dose 10 μM, read-out: Growth inhibition percentage (GI %)",46.4%
same,GI50,"RPMI-8226; RPMI-8226, five doses (0.01–100 μM), read-out: GI50",2780 nM
same,inhibition at 10 µM,"SR; SR (leukaemia), single dose 10 μM, read-out: Growth inhibition percentage (GI %)",84%
same,GI50,"SR; SR, five doses (0.01–100 μM), read-out: GI50",320 nM
same,inhibition at 10 µM,"EKVX; EKVX (non-small cell lung cancer), single dose 10 μM, read-out: Growth inhibition percentage (GI %)",77.8%
same,GI50,"EKVX; EKVX, five doses (0.01–100 μM), read-out: GI50",3280 nM
same,inhibition at 10 µM,"HOP-92; HOP-92 (non-small cell lung cancer), single dose 10 μM, read-out: Growth inhibition percentage (GI %)",87.2%
same,GI50,"HOP-92; HOP-92, five doses (0.01–100 μM), read-out: GI50",1650 nM
same,inhibition at 10 µM,HCC-2998,41.1%
same,inhibition at 10 µM,SNB-19,58.3%
same,inhibition at 10 µM,TK-10,52%
same,inhibition at 10 µM,"COLO 205; COLO 205 (colon cancer), single dose 10 μM, read-out: Growth inhibition percentage (GI %)",52%
same,GI50,"COLO 205; COLO 205, five doses (0.01–100 μM), read-out: GI50",5530 nM
same,inhibition at 10 µM,"HCT-116; HCT-116 (colon cancer), single dose 10 μM, read-out: Growth inhibition percentage (GI %)",80.8%
same,GI50,"HCT-116; HCT-116, five doses (0.01–100 μM), read-out: GI50",820 nM
same,inhibition at 10 µM,"HCT-15; HCT-15 (colon cancer), single dose 10 μM, read-out: Growth inhibition percentage (GI %)",96.1%
same,GI50,"HCT-15; HCT-15, five doses (0.01–100 μM), read-out: GI50",240 nM
same,GI50,"SW-620; SW-620, SW-620, five doses (0.01–100 μM), read-out: GI50",1780 nM
same,inhibition at 10 µM,"SW-620; SW-620 (colon cancer), single dose 10 μM, read-out: Growth inhibition percentage (GI %)",61.5%
same,inhibition at 10 µM,"SF-295; SF-295 (CNS cancer), single dose 10 μM, read-out: Growth inhibition percentage (GI %)",80.4%
same,GI50,"SF-295; SF-295, five doses (0.01–100 μM), read-out: GI50",7670 nM
same,inhibition at 10 µM,"SF-539; SF-539 (CNS cancer), single dose 10 μM, read-out: Growth inhibition percentage (GI %)",48.2%
same,GI50,"SF-539; SF-539, five doses (0.01–100 μM), read-out: GI50",7290 nM
same,inhibition at 10 µM,"LOX IMVI; LOX IMVI (melanoma), single dose 10 μM, read-out: Growth inhibition percentage (GI %)",96%
same,GI50,"LOX IMVI; LOX IMVI, five doses (0.01–100 μM), read-out: GI50",280 nM
same,inhibition at 10 µM,"MDA-MB-435; MDA-MB-435 (melanoma), single dose 10 μM, read-out: Growth inhibition percentage (GI %)",41.1%
same,GI50,"MDA-MB-435; MDA-MB-435, five doses (0.01–100 μM), read-out: GI50",9530 nM
same,inhibition at 10 µM,"SK-MEL-2; SK-MEL-2 (melanoma), single dose 10 μM, read-out: Growth inhibition percentage (GI %)",28%
same,GI50,"SK-MEL-2; SK-MEL-2, five doses (0.01–100 μM)",6060 nM
same,inhibition at 10 µM,"UACC-62; UACC-62 (melanoma), single dose 10 μM, read-out: Growth inhibition percentage (GI %)",11.2%
same,GI50,"UACC-62; UACC-62, five doses (0.01–100 μM), read-out: GI50",2450 nM
same,inhibition at 10 µM,"IGROV1; IGROV1 (ovarian cancer), single dose 10 μM, read-out: Growth inhibition percentage (GI %)",63%
same,GI50,"IGROV1; IGROV1, five doses (0.01–100 μM), read-out: GI50",970 nM
same,inhibition at 10 µM,"NCI/ADR-RES; NCI/ADR-RES (ovarian cancer), single dose 10 μM, read-out: Growth inhibition percentage (GI %)",77.1%
same,GI50,"NCI/ADR-RES; NCI/ADR-RES, five doses (0.01–100 μM), read-out: GI50",690 nM
same,inhibition at 10 µM,"786-0; 786-0, 786-0 (renal cancer), single dose 10 μM, read-out: Growth inhibition percentage (GI %)",69.7%
same,GI50,"786-0; 786-0, five doses (0.01–100 μM), read-out: GI50",710 nM
same,GI50,A498,1090 nM
same,inhibition at 10 µM,"RXF 393; RXF 393 (renal cancer), single dose 10 μM, read-out: Growth inhibition percentage (GI %)",101%
same,GI50,"RXF 393; RXF 393, five doses (0.01–100 μM), read-out: GI50",270 nM
same,inhibition at 10 µM,"UO-31; UO-31 (renal cancer), single dose 10 μM, read-out: Growth inhibition percentage (GI %)",80.2%
same,GI50,"UO-31; UO-31, five doses (0.01–100 μM), read-out: GI50",370 nM
same,GI50,"MDA-MB-231/ATCC; MDA-MB-231/ ATCC, five doses (0.01–100 μM), read-out: GI50",2420 nM
same,inhibition at 10 µM,"MDA-MB-231/ATCC; MDA-MB-231/ATCC (breast cancer), single dose 10 μM, read-out: Growth inhibition percentage (GI %)",63.7%
same,inhibition at 10 µM,"BT-549; BT-549 (breast cancer), single dose 10 μM, read-out: Growth inhibition percentage (GI %)",23.7%
same,GI50,"BT-549; BT-549, five doses (0.01–100 μM), read-out: GI50",5190 nM
same,inhibition at 10 µM,"MDA-MB-468; MDA-MB-468 (breast cancer), single dose 10 μM, read-out: Growth inhibition percentage (GI %)",60.8%
same,GI50,"MDA-MB-468; MDA-MB-468, five doses (0.01–100 μM), read-out: GI50",4110 nM
same,Mean GI %,[1],66.07%
